Active and inactive are the calls of the source. Cut-off read from the data, not from the text of the source, for most assays here: actives have a measured Kd and inactives only a lower limit.
Experiments:
[1] = biological target: T1, Serine/threonine-protein kinase 4 (Homo sapiens, UniProt Q13043)
T1 sequence (Q13043 whole entry): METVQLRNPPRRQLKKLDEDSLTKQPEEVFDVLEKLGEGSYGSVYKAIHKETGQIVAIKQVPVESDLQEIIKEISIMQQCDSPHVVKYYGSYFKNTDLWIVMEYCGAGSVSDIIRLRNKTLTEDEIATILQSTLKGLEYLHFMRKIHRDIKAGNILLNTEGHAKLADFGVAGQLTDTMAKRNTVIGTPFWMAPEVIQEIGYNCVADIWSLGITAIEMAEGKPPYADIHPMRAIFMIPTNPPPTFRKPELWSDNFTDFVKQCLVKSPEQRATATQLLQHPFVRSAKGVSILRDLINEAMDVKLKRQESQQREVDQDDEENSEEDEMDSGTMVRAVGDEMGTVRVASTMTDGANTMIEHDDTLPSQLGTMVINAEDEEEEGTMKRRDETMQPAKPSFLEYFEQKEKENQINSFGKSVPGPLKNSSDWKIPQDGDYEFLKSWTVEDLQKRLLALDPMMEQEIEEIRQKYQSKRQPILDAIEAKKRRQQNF

[2] = biological target: Elongation factor Tu, mitochondrial (Homo sapiens, UniProt P49411)
[3] = biological target: Calcium/calmodulin-dependent protein kinase type II subunit delta (Homo sapiens, UniProt Q13557)
Sequence of Calcium/calmodulin-dependent protein kinase type II subunit delta (Q13557 whole entry): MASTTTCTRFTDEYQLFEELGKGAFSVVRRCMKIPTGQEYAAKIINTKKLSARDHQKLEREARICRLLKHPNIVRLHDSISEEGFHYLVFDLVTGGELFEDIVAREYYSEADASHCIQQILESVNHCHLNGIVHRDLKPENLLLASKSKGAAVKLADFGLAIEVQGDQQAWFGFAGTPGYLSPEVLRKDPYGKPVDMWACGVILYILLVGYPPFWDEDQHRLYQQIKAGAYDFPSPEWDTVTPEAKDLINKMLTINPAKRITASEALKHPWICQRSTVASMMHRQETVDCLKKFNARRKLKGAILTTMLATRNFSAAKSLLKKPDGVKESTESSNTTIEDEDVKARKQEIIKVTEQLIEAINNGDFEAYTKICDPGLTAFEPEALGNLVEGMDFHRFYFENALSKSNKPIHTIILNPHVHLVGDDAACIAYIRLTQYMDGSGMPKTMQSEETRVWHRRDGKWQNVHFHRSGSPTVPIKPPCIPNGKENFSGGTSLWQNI

[4] = biological target: T2, ATP-dependent RNA helicase DDX42 (Homo sapiens, UniProt Q86XP3)
T2 sequence (Q86XP3 whole entry): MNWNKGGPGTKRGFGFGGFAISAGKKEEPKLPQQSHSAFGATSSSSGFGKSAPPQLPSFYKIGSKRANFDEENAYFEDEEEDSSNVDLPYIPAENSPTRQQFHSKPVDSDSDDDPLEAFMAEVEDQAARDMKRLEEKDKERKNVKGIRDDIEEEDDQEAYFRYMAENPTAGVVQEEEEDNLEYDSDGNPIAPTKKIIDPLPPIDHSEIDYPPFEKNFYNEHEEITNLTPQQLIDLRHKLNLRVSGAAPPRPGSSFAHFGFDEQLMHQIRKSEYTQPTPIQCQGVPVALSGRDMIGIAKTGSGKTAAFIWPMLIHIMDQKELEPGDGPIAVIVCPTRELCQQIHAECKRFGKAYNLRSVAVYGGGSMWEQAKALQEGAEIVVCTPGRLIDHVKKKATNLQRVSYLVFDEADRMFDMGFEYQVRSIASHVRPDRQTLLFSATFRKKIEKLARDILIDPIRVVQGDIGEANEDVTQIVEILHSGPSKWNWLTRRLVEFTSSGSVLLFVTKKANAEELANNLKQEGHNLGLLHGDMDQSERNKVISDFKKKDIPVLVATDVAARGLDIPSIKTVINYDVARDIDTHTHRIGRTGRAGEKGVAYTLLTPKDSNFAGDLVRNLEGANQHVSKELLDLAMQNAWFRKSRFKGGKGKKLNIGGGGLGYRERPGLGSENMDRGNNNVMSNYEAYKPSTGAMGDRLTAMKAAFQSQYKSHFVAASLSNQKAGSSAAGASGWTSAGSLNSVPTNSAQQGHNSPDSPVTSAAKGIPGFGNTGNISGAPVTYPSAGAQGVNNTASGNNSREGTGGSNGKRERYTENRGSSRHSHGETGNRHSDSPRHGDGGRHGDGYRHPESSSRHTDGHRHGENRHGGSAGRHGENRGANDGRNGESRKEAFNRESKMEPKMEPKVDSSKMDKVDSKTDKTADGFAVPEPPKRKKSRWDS

[5] = biological target: Serine/threonine-protein kinase 26 (Homo sapiens, UniProt Q9P289)
Sequence of Serine/threonine-protein kinase 26 (Q9P289 whole entry): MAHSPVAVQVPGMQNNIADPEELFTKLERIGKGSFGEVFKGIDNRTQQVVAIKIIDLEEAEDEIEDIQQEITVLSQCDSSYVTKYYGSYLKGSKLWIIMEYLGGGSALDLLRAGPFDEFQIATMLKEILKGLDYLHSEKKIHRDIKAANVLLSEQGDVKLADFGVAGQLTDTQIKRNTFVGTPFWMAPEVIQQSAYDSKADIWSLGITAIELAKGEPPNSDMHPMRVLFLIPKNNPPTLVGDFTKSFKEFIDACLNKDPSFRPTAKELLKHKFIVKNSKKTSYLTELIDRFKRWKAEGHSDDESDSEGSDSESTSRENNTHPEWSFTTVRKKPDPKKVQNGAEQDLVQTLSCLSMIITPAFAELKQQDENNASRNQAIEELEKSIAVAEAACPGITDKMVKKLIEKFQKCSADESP

[6] = biological target: Mitogen-activated protein kinase 7 (Homo sapiens, UniProt Q13164)
Sequence of Mitogen-activated protein kinase 7 (Q13164 whole entry): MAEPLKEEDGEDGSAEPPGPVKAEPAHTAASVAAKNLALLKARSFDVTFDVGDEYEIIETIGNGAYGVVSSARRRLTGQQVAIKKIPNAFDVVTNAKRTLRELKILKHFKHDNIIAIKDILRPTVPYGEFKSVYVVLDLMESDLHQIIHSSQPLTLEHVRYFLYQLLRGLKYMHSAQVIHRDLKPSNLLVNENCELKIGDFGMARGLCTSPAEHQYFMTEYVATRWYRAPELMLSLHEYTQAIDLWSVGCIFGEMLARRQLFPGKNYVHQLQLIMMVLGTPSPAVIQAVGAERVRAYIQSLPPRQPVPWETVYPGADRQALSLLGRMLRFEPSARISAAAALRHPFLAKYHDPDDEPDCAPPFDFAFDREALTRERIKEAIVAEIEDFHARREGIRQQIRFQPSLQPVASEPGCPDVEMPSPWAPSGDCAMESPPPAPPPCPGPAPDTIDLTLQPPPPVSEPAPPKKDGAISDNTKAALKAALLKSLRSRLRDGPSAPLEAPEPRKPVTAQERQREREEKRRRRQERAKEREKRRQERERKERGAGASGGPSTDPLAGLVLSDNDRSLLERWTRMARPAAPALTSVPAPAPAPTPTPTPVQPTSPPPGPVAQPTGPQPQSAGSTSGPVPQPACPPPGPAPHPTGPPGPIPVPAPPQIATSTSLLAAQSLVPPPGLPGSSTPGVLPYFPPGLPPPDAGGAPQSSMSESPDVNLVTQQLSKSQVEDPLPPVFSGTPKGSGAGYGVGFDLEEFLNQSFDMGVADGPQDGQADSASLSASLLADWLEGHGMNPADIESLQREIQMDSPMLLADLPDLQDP

Aurora kinase A = biological target: T3, Aurora kinase A (Homo sapiens, UniProt O14965)
T3 sequence (O14965 whole entry): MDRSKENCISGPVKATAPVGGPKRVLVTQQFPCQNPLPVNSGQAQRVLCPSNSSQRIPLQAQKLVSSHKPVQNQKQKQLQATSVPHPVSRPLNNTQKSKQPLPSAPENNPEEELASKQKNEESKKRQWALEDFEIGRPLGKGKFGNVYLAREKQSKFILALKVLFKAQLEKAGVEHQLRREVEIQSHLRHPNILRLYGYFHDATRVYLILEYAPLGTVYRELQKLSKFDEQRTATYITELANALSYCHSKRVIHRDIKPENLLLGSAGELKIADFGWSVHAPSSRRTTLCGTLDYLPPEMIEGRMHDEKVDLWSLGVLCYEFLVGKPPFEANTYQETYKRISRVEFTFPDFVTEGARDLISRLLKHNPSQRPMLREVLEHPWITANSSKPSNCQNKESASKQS

Ephrin type-A receptor 7 = Ephrin type-A receptor 7 (Homo sapiens, UniProt Q15375)
Sequence of Ephrin type-A receptor 7 (Q15375 whole entry): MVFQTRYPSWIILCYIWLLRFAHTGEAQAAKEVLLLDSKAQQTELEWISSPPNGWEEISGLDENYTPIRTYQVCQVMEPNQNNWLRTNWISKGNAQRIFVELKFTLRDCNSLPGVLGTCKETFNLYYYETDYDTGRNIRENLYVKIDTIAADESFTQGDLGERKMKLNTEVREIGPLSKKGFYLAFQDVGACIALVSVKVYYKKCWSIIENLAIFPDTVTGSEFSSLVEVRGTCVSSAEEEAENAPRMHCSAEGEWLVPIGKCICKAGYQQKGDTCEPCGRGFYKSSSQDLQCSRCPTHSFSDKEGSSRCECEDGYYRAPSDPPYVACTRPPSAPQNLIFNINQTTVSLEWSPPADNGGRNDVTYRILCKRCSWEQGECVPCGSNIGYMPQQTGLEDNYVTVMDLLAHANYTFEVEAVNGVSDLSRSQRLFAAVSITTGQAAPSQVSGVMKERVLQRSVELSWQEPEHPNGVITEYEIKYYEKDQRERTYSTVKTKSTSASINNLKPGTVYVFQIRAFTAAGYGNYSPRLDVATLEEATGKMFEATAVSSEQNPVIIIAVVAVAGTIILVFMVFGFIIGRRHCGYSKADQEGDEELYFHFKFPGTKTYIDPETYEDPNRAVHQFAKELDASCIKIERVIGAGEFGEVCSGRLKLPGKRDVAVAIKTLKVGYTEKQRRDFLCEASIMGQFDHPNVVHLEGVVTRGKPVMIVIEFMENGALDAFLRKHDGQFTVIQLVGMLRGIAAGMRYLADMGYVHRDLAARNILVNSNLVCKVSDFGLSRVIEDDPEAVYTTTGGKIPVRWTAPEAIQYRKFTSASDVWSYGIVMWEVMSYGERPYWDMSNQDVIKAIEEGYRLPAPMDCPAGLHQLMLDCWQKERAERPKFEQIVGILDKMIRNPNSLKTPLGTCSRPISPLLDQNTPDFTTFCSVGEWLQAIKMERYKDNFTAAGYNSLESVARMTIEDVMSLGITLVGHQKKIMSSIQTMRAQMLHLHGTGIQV

[7] = biological target: Mitogen-activated protein kinase kinase kinase kinase 5 (Homo sapiens, UniProt Q9Y4K4)
Sequence of Mitogen-activated protein kinase kinase kinase kinase 5 (Q9Y4K4 whole entry): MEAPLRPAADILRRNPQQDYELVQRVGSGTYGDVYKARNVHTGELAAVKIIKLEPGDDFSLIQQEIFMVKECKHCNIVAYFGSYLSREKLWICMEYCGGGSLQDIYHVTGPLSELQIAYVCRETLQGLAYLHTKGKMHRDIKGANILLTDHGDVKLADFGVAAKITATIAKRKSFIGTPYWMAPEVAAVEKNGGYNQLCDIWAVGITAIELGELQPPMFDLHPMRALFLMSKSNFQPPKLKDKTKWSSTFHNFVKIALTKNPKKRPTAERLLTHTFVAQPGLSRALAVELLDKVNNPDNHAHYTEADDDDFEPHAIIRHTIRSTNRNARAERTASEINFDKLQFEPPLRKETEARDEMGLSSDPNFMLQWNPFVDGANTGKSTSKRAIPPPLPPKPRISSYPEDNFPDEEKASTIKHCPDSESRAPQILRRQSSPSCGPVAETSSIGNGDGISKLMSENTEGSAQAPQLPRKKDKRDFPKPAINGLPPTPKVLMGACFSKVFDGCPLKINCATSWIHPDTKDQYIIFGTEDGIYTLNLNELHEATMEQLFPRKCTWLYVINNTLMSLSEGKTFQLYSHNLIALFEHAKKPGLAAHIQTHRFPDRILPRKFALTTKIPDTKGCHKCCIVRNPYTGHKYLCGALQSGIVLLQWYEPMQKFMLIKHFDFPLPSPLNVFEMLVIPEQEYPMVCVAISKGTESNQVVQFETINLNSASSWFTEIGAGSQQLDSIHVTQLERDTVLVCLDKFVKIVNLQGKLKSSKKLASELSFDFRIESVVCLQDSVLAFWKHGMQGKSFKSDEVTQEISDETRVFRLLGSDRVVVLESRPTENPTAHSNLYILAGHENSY

[8] = biological target: Ras-related protein Rab-6A (Homo sapiens, UniProt P20340)
Sequence of Ras-related protein Rab-6A (P20340 whole entry): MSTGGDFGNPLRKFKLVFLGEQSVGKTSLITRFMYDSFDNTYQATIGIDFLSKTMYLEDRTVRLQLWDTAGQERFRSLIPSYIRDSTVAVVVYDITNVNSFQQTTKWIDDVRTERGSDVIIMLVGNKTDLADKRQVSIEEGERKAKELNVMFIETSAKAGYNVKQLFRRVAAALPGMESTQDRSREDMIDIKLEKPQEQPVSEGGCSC

[9] = biological target: Tyrosine-protein kinase ABL2 (Homo sapiens, UniProt P42684)
Sequence of Tyrosine-protein kinase ABL2 (P42684 whole entry): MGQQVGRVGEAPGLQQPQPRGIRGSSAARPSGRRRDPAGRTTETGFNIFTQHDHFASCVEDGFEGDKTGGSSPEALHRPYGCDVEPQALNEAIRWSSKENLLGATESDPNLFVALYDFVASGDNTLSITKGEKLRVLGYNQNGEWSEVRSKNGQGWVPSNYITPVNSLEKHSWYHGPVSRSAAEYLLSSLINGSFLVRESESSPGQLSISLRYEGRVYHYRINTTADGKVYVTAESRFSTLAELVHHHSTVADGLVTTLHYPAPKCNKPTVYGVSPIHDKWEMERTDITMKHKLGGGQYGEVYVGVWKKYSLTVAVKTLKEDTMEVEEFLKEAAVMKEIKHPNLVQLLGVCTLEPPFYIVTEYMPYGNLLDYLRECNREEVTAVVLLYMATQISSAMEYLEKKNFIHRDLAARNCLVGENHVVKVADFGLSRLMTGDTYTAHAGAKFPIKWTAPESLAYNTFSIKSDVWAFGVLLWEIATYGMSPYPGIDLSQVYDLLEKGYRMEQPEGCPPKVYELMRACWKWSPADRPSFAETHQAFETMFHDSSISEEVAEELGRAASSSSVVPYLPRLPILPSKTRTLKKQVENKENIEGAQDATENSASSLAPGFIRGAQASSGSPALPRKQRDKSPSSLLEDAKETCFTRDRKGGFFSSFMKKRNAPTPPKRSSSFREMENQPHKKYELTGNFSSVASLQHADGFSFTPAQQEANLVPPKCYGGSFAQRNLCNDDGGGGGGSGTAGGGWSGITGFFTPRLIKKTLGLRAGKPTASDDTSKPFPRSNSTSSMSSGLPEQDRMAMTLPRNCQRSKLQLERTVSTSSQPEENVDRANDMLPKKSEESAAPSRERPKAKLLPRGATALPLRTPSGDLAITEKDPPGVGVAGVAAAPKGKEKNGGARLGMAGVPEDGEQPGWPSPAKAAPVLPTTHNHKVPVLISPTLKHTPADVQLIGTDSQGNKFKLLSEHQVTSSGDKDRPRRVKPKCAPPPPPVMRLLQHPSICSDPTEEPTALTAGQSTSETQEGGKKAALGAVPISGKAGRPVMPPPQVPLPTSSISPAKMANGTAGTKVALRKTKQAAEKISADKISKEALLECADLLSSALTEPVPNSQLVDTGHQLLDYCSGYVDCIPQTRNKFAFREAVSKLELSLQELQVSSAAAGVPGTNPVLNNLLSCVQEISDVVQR

[10] = biological target: T4, Succinate--CoA ligase [ADP-forming] subunit beta, mitochondrial (Homo sapiens, UniProt Q9P2R7)
T4 sequence (Q9P2R7 whole entry): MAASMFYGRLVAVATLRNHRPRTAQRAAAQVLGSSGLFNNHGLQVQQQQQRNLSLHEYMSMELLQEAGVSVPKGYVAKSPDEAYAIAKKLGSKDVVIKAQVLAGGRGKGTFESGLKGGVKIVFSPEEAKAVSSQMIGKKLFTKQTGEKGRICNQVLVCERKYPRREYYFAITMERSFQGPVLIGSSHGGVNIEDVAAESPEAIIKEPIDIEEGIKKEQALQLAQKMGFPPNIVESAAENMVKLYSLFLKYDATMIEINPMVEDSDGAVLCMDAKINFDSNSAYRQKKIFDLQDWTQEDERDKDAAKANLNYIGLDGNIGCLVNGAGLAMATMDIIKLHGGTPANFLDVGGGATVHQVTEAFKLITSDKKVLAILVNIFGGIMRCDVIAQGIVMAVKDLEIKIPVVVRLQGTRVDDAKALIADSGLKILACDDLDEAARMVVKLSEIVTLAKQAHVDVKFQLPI
Note: in the data inactive means no Kd found up to 30 µM.

SMILES	Kd [1]	Kd [2]	Kd [3]	Kd [4]	Kd [5]	Kd [6]	Kd (Aurora kinase A)	Kd (Ephrin type-A receptor 7)	Kd [7]	Kd [8]	Kd [9]	Kd [10]
CC(C)(C)c1nc(-c2cccc(NS(=O)(=O)c3c(F)cccc3F)c2F)c(-c2ccnc(N)n2)s1 [DABRAFENIB]	> 30 µM (inactive)	> 30 µM (inactive)	> 30 µM (inactive)	> 30 µM (inactive)	> 30 µM (inactive)	> 30 µM (inactive)	> 30 µM (inactive)	> 30 µM (inactive)	> 30 µM (inactive)	> 30 µM (inactive)	0.305 µM (active)	
Cc1nc2cc(-n3ncc(C(=O)c4cc5ccccc5[nH]4)c3N)ccc2[nH]1 [FGFR INHIBITOR DEBIO 1347]	> 30 µM (inactive)	> 30 µM (inactive)	> 30 µM (inactive)	> 30 µM (inactive)	> 30 µM (inactive)	> 30 µM (inactive)	> 30 µM (inactive)		> 30 µM (inactive)	> 30 µM (inactive)	> 30 µM (inactive)	> 30 µM (inactive)
CC(C)c1cc(CNc2nc(Nc3cc(C4CC4)[nH]n3)cc(N3CCN(C)CC3)n2)on1 [XL-228]		> 30 µM (inactive)	> 30 µM (inactive)		> 30 µM (inactive)	> 30 µM (inactive)	0.003 µM (active)	0.017 µM (active)	0.551 µM (active)	> 30 µM (inactive)	0.008 µM (active)	> 30 µM (inactive)
CO[C@H]1C[C@@H]2CC[C@@H](C)[C@@](O)(O2)C(=O)C(=O)N2CCCC[C@H]2C(=O)O[C@H]([C@H](C)C[C@@H]2CC[C@@H](O)[C@H](OC)C2)CC(=O)[C@H](C)/C=C(\C)[C@@H](O)[C@@H](OC)C(=O)[C@H](C)C[C@H](C)/C=C/C=C/C=C/1C [SIROLIMUS]	> 30 µM (inactive)	> 30 µM (inactive)	> 30 µM (inactive)		> 30 µM (inactive)	> 30 µM (inactive)	> 30 µM (inactive)		> 30 µM (inactive)	> 30 µM (inactive)	> 30 µM (inactive)	> 30 µM (inactive)
O=C1NC(=O)[C@@H](c2cn3c4c(cccc24)CCC3)[C@@H]1c1c[nH]c2ccccc12 [TIVANTINIB]	> 30 µM (inactive)	> 30 µM (inactive)	> 30 µM (inactive)	> 30 µM (inactive)	> 30 µM (inactive)	> 30 µM (inactive)	> 30 µM (inactive)		> 30 µM (inactive)	> 30 µM (inactive)	> 30 µM (inactive)	> 30 µM (inactive)
CO[C@H]1C[C@@H]2CC[C@@H](C)[C@@](O)(O2)C(=O)C(=O)N2CCCC[C@H]2C(=O)O[C@H]([C@H](C)C[C@@H]2CC[C@@H](OP(C)(C)=O)[C@H](OC)C2)CC(=O)[C@H](C)/C=C(\C)[C@@H](O)[C@@H](OC)C(=O)[C@H](C)C[C@H](C)/C=C/C=C/C=C/1C [RIDAFOROLIMUS]	> 30 µM (inactive)	> 30 µM (inactive)	> 30 µM (inactive)	> 30 µM (inactive)	> 30 µM (inactive)	> 30 µM (inactive)	> 30 µM (inactive)		> 30 µM (inactive)	> 30 µM (inactive)	> 30 µM (inactive)	
C[C@H]1CNCCCN1S(=O)(=O)c1cccc2cncc(F)c12	> 30 µM (inactive)	> 30 µM (inactive)	> 30 µM (inactive)	> 30 µM (inactive)	> 30 µM (inactive)	> 30 µM (inactive)	> 30 µM (inactive)		> 30 µM (inactive)	> 30 µM (inactive)	> 30 µM (inactive)	> 30 µM (inactive)
Cc1cnc(NC(=O)Nc2cc(Br)c(C)cc2OC[C@@H]2CNCCO2)cn1 [RABUSERTIB]	> 30 µM (inactive)	> 30 µM (inactive)	> 30 µM (inactive)	> 30 µM (inactive)	> 30 µM (inactive)	> 30 µM (inactive)	> 30 µM (inactive)	> 30 µM (inactive)	> 30 µM (inactive)	> 30 µM (inactive)	> 30 µM (inactive)	
CN1CCN(CCOc2cc(OC3CCOCC3)c3c(Nc4c(Cl)ccc5c4OCO5)ncnc3c2)CC1 [SARACATINIB]	> 30 µM (inactive)	> 30 µM (inactive)	> 30 µM (inactive)	> 30 µM (inactive)	> 30 µM (inactive)	> 30 µM (inactive)	> 30 µM (inactive)	> 30 µM (inactive)	27.1 µM	> 30 µM (inactive)		
CNC(=O)c1cc(Oc2ccc(NC(=O)Nc3cc(C(C)(C)C)nn3-c3ccc4ncccc4c3)c(F)c2)ccn1 [REBASTINIB]		> 30 µM (inactive)	> 30 µM (inactive)	> 30 µM (inactive)	> 30 µM (inactive)	> 30 µM (inactive)	> 30 µM (inactive)			> 30 µM (inactive)	0.135 µM (active)	> 30 µM (inactive)
COc1ccc(S(=O)(=O)N(C(C)=O)c2ccccc2/C=C/c2cc[n+]([O-])cc2)cc1 [HMN-214]	> 30 µM (inactive)	> 30 µM (inactive)	> 30 µM (inactive)		> 30 µM (inactive)	> 30 µM (inactive)	> 30 µM (inactive)	> 30 µM (inactive)	> 30 µM (inactive)	> 30 µM (inactive)	> 30 µM (inactive)	
CCOc1cc2ncc(C#N)c(Nc3ccc(F)c(Cl)c3)c2cc1NC(=O)/C=C/CN(C)C [PELITINIB]		> 30 µM (inactive)	> 30 µM (inactive)	> 30 µM (inactive)	> 30 µM (inactive)	> 30 µM (inactive)	> 30 µM (inactive)	> 30 µM (inactive)	0.042 µM (active)	> 30 µM (inactive)		> 30 µM (inactive)
NC(=O)Nc1cc(-c2cccc(F)c2)sc1C(=O)N[C@H]1CCCNC1 [AZD-7762]	0.056 µM (active)	> 30 µM (inactive)	> 30 µM (inactive)		> 30 µM (inactive)	> 30 µM (inactive)	> 30 µM (inactive)	> 30 µM (inactive)	0.197 µM (active)	> 30 µM (inactive)	0.899 µM (active)	

Source: ChEMBL document CHEMBL3991601, “The target landscape of clinical kinase drugs” (Science, 2017)
